Source: paper PMC7282810, “Existence and functions of a kisspeptin neuropeptide signaling system in a non-chordate deuterostome species” (eLife, 2020)
“Also recorded” adds a separate entry of the source. Read-outs that look alike come from different tables or passages of the source. Where a SMILES comes first, the peptide text is derived from it. Bridges are numbered along the chain shown (N, C = ends). Where no end group is shown, it is not given here. [ ]: non-standard residue; d: D form.

Experiments:
AjKissR2-EGFP = assay: Receptor internalization (translocation) by confocal microscopy, AjKissR2-EGFP; format: cell-based, Apostichopus japonicus; conditions: 1.0 μM ligand, 60 min
Procedure: For receptor-surface expression analysis, HEK293 cells expressing AjKissR1/2-EGFP were seeded onto glass coverslips in 12-well plates, coated with 0.1 mg/mL poly-L-lysine, and allowed to attach overnight under normal growth conditions ([Li et al., 2010]). The cells were washed three times with PBS and further stained with the membrane probe DiI (Beyotime) at 37°C for 5–10 min, fixed with 4% paraformaldehyde for 10 min, and then incubated with DAPI (Beyotime) for 5–10 min. For the translocation assays, the receptor-expressing cells were treated with 1.0 μM of various stimuli for 60 min, washed three times with PBS and then fixed with 4% paraformaldehyde in PBS for 10 min at room temperature. Finally, the cells were mounted in mounting reagent (DTT/PBS/glycerol, 1:8:2) and visualized by fluorescence microscopy on a Zeiss laser scanning confocal microscope, which was attached to a Zeiss Axiovert 200 microscope and linked to an LSM5 computer system.

AjKissR1 [1] = biological target: T1, AjKissR1 (Apostichopus japonicus, UniProt A0A5B7LK60); assay: Ligand competition binding assay (FITC-AjKiss1a, FACS), HEK293/AjKissR1; conditions: 1.0 μM FITC-AjKiss1a, read-out: IC50 (competitive displacement of FITC-AjKiss1a)
T1 sequence (A0A5B7LK60 1-378): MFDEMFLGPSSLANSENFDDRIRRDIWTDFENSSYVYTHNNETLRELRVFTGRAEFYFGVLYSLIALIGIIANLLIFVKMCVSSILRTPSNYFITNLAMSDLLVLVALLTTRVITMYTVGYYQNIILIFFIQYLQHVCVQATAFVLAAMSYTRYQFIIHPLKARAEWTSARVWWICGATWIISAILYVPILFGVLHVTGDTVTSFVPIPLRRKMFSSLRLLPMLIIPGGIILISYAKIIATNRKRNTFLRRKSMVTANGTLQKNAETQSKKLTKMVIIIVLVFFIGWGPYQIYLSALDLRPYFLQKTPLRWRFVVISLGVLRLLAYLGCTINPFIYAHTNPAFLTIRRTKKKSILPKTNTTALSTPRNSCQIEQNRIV
Procedure: (§1) A fluorescence-activated cell sorter (FACS) was used to detect the binding ability of kisspeptins with AjKissR1 or AjKissR2. HEK293 cells expressing FLAG–AjKissR1 or FLAG–AjKissR2 were washed with PBS that contained 0.2% bovine serum albumin (FACS buffer). We designed and synthesized an N-terminal FITC-labeled AjKiss1a peptide (see 'Key resources table'). Different kisspeptins were diluted in the FACS buffer to different concentrations, then added to cells that were incubated on ice for 60–90 min. Cells were washed thrice with the FACS buffer and re-suspended in the FACS buffer with 1% paraformaldehyde for 15 min. The binding activity of the indicated kisspeptin peptides with AjKissR1 or AjKissR2 was determined by measuring the fluorescence of FITC and was presented as a percentage of total binding.

[2] = tested on: zebrafish kisspeptin receptor DrKiss1Ra; assay: Intracellular Ca2+ mobilization (Fura-2/AM) in DrKiss1Ra-expressing HEK293 cells; format: cell-based; conditions: 1.0 μM peptide, HEK293, Fura-2/AM
Procedure: (§2) The fluorescent Ca^2+ indicator Fura-2/AM was used to detect intracellular calcium flux ([Li et al., 2010]). Briefly, the HEK293 cells expressing the AjKissR1, AjKissR2 or vertebrate kisspeptin receptor were washed twice with PBS and suspended at 5 × 10^6 cells/mL in Hanks’ balanced salt solution. The cells were then loaded with 3.0 μM Fura-2/AM for 30 min and washed twice in Hanks’ solution. They were then stimulated with the indicated concentrations of different predicted A. japonicus kisspeptins or vertebrate kisspeptins. Finally, intracellular calcium flux was measured for 60 s, by determining the ratio of excitation wavelengths at 340 and 380 nm using a fluorescence spectrometer (Infinite 200 PRO, Tecan, Männedorf, Switzerland). All of the experiments for measuring Ca^2+ mobilization were repeated independently at least three times.

[3] = tested on: human kisspeptin receptor (HsKiss1R); assay: Intracellular Ca2+ mobilization (Fura-2/AM) in HsKiss1R-expressing HEK293 cells; format: cell-based; conditions: 1.0 μM peptide, HEK293, Fura-2/AM
Procedure: as §2

AjKissR2 [4] = biological target: T2, AjKissR2 (Apostichopus japonicus, UniProt A0A5B7LIE4); format: cell-based; conditions: Ca2+ trace (Fura-2/AM) area under curve, AjKiss1a at Log[M] -10 (100 pM), HEK293/AjKissR2, 68 s trace
T2 sequence (A0A5B7LIE4 1-327): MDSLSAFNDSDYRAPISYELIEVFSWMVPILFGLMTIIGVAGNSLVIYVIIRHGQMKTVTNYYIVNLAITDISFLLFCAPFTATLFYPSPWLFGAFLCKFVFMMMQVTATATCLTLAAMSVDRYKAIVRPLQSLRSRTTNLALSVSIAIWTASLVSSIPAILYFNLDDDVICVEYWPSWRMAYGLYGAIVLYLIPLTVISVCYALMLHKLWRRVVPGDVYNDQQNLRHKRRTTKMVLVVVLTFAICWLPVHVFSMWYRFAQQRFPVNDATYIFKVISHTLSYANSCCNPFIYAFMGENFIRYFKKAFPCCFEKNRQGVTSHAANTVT

AjKissR2 [5] = biological target: T2, AjKissR2; assay: cell-based; format: cell-based; conditions: for AUC: Ca2+ trace area under curve, HEK293/AjKissR2
Procedure: as §2

AjKissR1 [6] = biological target: T1, AjKissR1; assay: cell-based; format: cell-based
Procedure: as §2

[7] = tested on: zebrafish kisspeptin receptor DrKiss1Rb; assay: Intracellular Ca2+ mobilization (Fura-2/AM) in DrKiss1Rb-expressing HEK293 cells; format: cell-based; conditions: 1.0 μM peptide, HEK293, Fura-2/AM
Procedure: as §2

AjKissR2 [8] = biological target: T2, AjKissR2; assay: Ligand competition binding assay (FITC-AjKiss1a, FACS), HEK293/AjKissR2; conditions: 1.0 μM FITC-AjKiss1a, read-out: IC50 (competitive displacement of FITC-AjKiss1a)
Procedure: as §1

[9] = tested on: cultured oocytes of sea cucumber; assay: Immunofluorescence staining of p-ERK signal in cultured oocytes (confocal microscopy); format: cell-based, Apostichopus japonicus; conditions: 4-hr pre-treatment with pep234
Procedure: Paraffin sections were baked at 60°C for 2–4 hr and placed in xylene for 15 min, twice. The slides were washed twice in 100% ethanol for 10 min each, then in 95% ethanol for 10 min, 85% ethanol for 5 min, 70% ethanol for 5 min, and 50% ethanol for 5 min, followed by washing with dH2O for 5 min, and finally washing with PBS for 5 min. Antigen unmasking was performed in sodium citrate buffer (pH 6) for 10 min at 97°C, and then cooled to room temperature. Endogenous peroxidases were blocked by 10 min incubation in 3.0% hydrogen peroxide. Nonspecific antigens were blocked by a 60 min incubation in 0.3% bovine serum albumin (BSA) in TBST. Slides were incubated with primary antibodies overnight after removing the blocking solution, followed by 2 hr incubation with fluorescein isothiocyanate (FITC)-conjugated secondary antibodies (FITC-labeled goat anti-rabbit IgG (H+L), Beyotime). […]
(§3) For in vitro experiments, the ovary and respiratory tree tissues were cut into small pieces of approximately 1 mm^3 and cultured in Leibovitz L-15 medium (HyClone) supplemented with 12.0 g/L NaCl, 0.32 g/L KCl, 0.36 g/L CaCl2, 0.6 g/L Na2SO4, 2.4 g/L MgCl2, 0.6 g/L glucose at 18°C in a humidified incubator ([Wang et al., 2020]). For ERK1/2 phosphorylation or immunofluorescence assays, samples were evaluated or fixed after 2 hr of ligand/PBS administration, with a 4 hr pre-treatment of pep234/PBS.

[10] = tested on: cultured oocytes of sea cucumber; assay: ERK1/2 phosphorylation (western blot) in cultured ovary / oocytes of sea cucumber; format: cell-based, Apostichopus japonicus; conditions: pep234 1.0 μM, 4-hr pre-treatment; DrKiss1-10 or AjKiss1b-10 administrated cells
Procedure: To examine the phosphorylation of ERK, cells that expressed AjKissr1/2 or other GPR54s were incubated for the indicated times with different concentrations of kisspeptins. Subsequently, cells were lysed with lysis buffer (Beyotime) that contained protease inhibitor (Roche) at 4°C for 30 min on a rocker and then scraped. Proteins were then electrophoresed on a 10% SDS polyacrylamide gel and transferred to polyvinylidene difluoride (PVDF) membranes. Membranes were blocked with 5% skimmed milk, then probed with rabbit anti-phospho-ERK1/2(Thr^202/Tyr^204) antibody (1:2000; Cell Signaling Technology), followed by detection using HRP-conjugated goat anti-rabbit IgG (Beyotime). Blots were stripped and reprobed using anti-ERK1/2 antibody (1:2000; Cell Signaling Technology) as a control for protein loading.
as §3

[11] = biological target: FLAG–AjKissR1 (Apostichopus japonicus); assay: flow cytometry on cells; ligand competition: 1.0 uM FITC-AjKiss1a with unlabeled kisspeptins at the indicated concentrations on HEK293 cells expressing FLAG-AjKissR1 or FLAG-AjKissR2; on ice 60-90 min; PBS with 0.2% BSA; FITC fluorescence as percentage of total binding
[12] = biological target: FLAG–AjKissR1 (Apostichopus japonicus)
FLAG–AjKissR2 = biological target: T3, FLAG–AjKissR2 (Apostichopus japonicus); assay: competition with 1.0 uM FITC-AjKiss1a
T3 chain: T2 sequence (A0A5B7LIE4 1-327)

[13] = log(agonist) vs. response (three parameters) fit of AUC, AjKiss1a on AjKissR2, 5 points
[14] = fit of AUC vs Log[AjKiss1a]M, source data Figure 3B1

## CC(C)C[C@H](NC(=O)[C@H](CO)NC(=O)CNC(=O)[C@H](C)N)C(=O)N[C@@H](CC(=O)O)C(=O)N[C@H]1CSSC[C@@H](C(=O)N[C@@H](CCC(=O)O)C(=O)N[C@@H](CC(=O)O)C(=O)N[C@H](C(=O)N[C@@H](CCC(=O)O)C(=O)N[C@@H](CCCNC(=N)N)C(=O)N[C@@H](CCCNC(=N)N)C(=O)NCC(=O)N[C@@H](CCCNC(=N)N)C(=O)N[C@@H](CCC(N)=O)C(=O)N2CCC[C@H]2C(=O)N[C@@H](CC(N)=O)C(=O)N[C@@H](CCCNC(=N)N)C(=O)N[C@@H](CC(N)=O)C(=O)N[C@@H](C)C(=O)N[C@@H](Cc2c[nH]cn2)C(=O)N[C@@H](Cc2ccc(O)cc2)C(=O)N[C@@H](CCCNC(=N)N)C(=O)N[C@H](C(=O)N[C@@H](CC(C)C)C(=O)N2CCC[C@H]2C(=O)N[C@@H](Cc2ccccc2)C(N)=O)[C@@H](C)O)C(C)C)NC(=O)[C@H](CO)NC(=O)[C@H](C)NC(=O)[C@H](CCC(=O)O)NC(=O)[C@H](CC(C)C)NC1=O [AjKiss1a] (H-AGSLDCLEASCEDVERRGRQPNRNAHYRTLPF-NH2; disulfide 6-11)
AjKissR2-EGFP
  Internalization of AjKissR2-EGFP from the plasma membrane to the cytoplasm (in words): significant internalization
AjKissR1 [1]
  IC50: 568 nM
[2]
  Activation of DrKiss1Ra, Ca2+ mobilization (in words): could activate; also recorded: could potentiate
[3]
  Activation of HsKiss1R, Ca2+ mobilization (in words): could activate; also recorded: could potentiate
AjKissR2 [4]
  AUC: 7.592
AjKissR2 [5]
  EC50: 1.98 nM
AjKissR2 [5]; AjKiss1a at Log[M] -6 (1 μM)
  AUC: 24.14
AjKissR2 [5]; AjKiss1a at Log[M] -7 (100 nM)
  AUC: 24.83
AjKissR2 [5]; AjKiss1a at Log[M] -8 (10 nM)
  AUC: 24.2
AjKissR2 [5]; AjKiss1a at Log[M] -9 (1 nM)
  AUC: 11.14
AjKissR2 [5]; [13]
  Bottom (best-fit value): 6.057
  Span (best-fit value): 19.28
  Top (best-fit value): 25.34
AjKissR2 [5]; log(agonist) vs. response (three parameters) fit of AUC, Log[AjKiss1a]M, AjKissR2, 5 points
  LogEC50 (best-fit value): -8.703
AjKissR1 [6]
  EC50: 80.8 nM
AjKissR1 [6]; Log[AjKiss1a]M -6
  AUC (Ca2+ mobilization): 18.82
AjKissR1 [6]; Log[AjKiss1a]M -7
  AUC (Ca2+ mobilization): 12.93
AjKissR1 [6]; Log[AjKiss1a]M -8
  AUC (Ca2+ mobilization): 8.793
AjKissR1 [6]; Log[AjKiss1a]M -9
  AUC (Ca2+ mobilization): 6.715
AjKissR1 [6]; Log[AjKiss1a]M -10
  AUC (Ca2+ mobilization): 4.474
AjKissR1 [6]; [14]
  Bottom (best-fit value): 5.962
  LogEC50 (best-fit value): -7.093
  Span (best-fit value): 13.69
  Top (best-fit value): 19.65
[7]
  Activation of DrKiss1Rb, Ca2+ mobilization (in words): could activate; also recorded: could potentiate
AjKissR2 [8]
  IC50: 95.2 nM

## Ac-[dA]NWNGFG[dW]RF-NH2 [pep234, vertebrate kisspeptin antagonist]
[9]
  Inhibition of AjKiss1b-10-induced p-ERK signal in oocytes, confocal microscopy (in words): inhibition
[10]
  Block of kisspeptin-induced ERK phosphorylation signal, western blot (in words): blocked

## SAVKNKNKSRARPPLLPF-NH2 [AjKiss1b (C-terminal amidated)]
[11]
  IC50: 353 nM
[12]
  EC50 of intracellular Ca2+ mobilization (Fura-2/AM) in HEK293 cells expressing FLAG-AjKissR1: 8.06 nM
FLAG–AjKissR2
  IC50: 1250 nM
